These results are taken from patent publication US20230117034A1, “PYRAZOLOTRIAZINES” (Bayer Aktiengesellschaft, priority 2019, published 2023).

In one assay the target is T1, CDK2/CycE (Homo sapiens, UniProt P24941).
T1 construct: purchased ProQinase GmbH (Freiburg, Germany); host or cells: insect cells (Sf9)
The assay is described as follows: CDK2/CycE kinase assay (TR-FRET, 2 mM ATP). The assay is classed as biochemical. The conditions noted are these: 2 mM ATP (high ATP); median; read-out: CDK2/CyclinE, 2 mM ATP (high ATP), IC50 (median). In short, it runs like this: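 GST-tagged human CDK2 and CycE from Sf9 cells, about 10 ng/ml, pre-incubated 15 min at 22 °C with compound in Tris/HCl pH 8.0 buffer. Reaction with 2 mM ATP and 0.75 µM biotinylated peptide for 25 min at 22 °C. Phospho-RB antibody TR-FRET (665/620 nm ratio) read after 1 h; data normalised to no-inhibitor and no-enzyme controls.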

Assay [1] relates to BRCA1 mRNA expression in MDA-MB-231 cells. The assay is described as follows: qRT-PCR assay: BRCA1 mRNA expression in MDA-MB-231. The conditions noted are these: Homo sapiens, MDA-MB-231, Inhibition of BRCA1 mRNA expression in MDA-MB-231 cells; median; read-out: RTqPCR-MDA-MB-231, IC50, BRCA1 (median). The assay is classed as cell-based, human. In short, it runs like this:
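Read-out is RT-qPCR with expression normalised to the GAPDH housekeeping gene. Before RNA isolation, plated cells (200,000 per well, 24 h attachment) received test substances continuously over 24 h, and 600 ng of RNA served as cDNA template.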

Assay [2] addresses T2, CDK12 (nuclear staining in CAL-120 cells) (Homo sapiens, UniProt Q9NYV4).
T2 construct: endogenous in cells; host or cells: CAL-120 human breast cancer cells (DSMZ ACC 459)
The assay is described as follows: CDK12 nuclear protein level: immunofluorescence/high content analysis (CAL-120). The format is cell-based. The conditions noted are these: for DC50: CAL-120 cells, 24 h, immunofluorescence, 50% reduction of nuclear CDK12 staining intensity, median, read-out: CDK12 degradation IF, DC50- [mol/l] (median); for (IC50 CDK12 high ATP) to (Degradation DC50 CDK12) ratio: ratio of IC50 CDK12 high ATP kinase assay to DC50 CDK12 degradation (IF, CAL-120). In short, it runs like this: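 CAL-120 cells were treated with compound for 24 h at 37 °C, fixed with PFA and immunostained for CDK12. Nuclear CDK12 intensity was quantified by automated image analysis and normalized to DMSO and control. DC50 is the concentration giving 50% reduction of nuclear staining.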

Structures are written as SMILES.

T2 sequence (Q9NYV4 whole entry): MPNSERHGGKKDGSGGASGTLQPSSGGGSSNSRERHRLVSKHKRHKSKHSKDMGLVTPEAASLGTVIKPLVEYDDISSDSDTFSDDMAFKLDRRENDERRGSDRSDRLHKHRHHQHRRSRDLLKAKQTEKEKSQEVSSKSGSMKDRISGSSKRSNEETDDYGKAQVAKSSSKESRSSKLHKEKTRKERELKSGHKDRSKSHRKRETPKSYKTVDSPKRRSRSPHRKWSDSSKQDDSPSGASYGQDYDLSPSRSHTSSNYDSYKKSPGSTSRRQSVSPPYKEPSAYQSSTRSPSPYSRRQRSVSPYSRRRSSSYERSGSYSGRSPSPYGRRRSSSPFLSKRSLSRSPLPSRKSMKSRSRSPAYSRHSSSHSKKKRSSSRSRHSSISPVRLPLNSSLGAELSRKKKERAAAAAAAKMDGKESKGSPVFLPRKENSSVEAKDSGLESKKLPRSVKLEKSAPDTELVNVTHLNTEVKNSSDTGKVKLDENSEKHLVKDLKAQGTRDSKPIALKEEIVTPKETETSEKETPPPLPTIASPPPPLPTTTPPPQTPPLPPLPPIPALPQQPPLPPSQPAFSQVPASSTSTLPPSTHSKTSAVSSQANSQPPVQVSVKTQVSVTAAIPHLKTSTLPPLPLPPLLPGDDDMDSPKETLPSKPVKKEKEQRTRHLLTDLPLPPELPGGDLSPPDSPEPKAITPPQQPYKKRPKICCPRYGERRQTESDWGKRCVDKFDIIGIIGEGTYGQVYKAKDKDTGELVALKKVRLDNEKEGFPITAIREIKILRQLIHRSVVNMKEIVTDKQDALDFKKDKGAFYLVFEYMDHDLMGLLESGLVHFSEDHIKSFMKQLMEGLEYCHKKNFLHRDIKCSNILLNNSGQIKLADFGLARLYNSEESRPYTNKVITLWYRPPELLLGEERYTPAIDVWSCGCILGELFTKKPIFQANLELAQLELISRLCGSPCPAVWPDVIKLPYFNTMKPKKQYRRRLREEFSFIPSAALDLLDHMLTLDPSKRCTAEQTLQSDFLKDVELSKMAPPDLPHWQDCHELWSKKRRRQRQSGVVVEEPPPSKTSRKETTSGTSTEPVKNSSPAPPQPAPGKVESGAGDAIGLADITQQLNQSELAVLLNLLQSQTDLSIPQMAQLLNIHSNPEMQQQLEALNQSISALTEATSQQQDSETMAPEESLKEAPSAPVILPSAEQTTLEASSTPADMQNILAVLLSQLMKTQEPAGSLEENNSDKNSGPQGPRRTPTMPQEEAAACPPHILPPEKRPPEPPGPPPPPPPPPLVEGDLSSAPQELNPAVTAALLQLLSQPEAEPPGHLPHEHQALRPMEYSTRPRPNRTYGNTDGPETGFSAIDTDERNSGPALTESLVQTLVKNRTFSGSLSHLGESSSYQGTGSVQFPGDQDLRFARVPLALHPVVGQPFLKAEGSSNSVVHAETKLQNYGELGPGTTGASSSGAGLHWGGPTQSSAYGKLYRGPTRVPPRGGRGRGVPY
T2 sequence (O75909 whole entry partner): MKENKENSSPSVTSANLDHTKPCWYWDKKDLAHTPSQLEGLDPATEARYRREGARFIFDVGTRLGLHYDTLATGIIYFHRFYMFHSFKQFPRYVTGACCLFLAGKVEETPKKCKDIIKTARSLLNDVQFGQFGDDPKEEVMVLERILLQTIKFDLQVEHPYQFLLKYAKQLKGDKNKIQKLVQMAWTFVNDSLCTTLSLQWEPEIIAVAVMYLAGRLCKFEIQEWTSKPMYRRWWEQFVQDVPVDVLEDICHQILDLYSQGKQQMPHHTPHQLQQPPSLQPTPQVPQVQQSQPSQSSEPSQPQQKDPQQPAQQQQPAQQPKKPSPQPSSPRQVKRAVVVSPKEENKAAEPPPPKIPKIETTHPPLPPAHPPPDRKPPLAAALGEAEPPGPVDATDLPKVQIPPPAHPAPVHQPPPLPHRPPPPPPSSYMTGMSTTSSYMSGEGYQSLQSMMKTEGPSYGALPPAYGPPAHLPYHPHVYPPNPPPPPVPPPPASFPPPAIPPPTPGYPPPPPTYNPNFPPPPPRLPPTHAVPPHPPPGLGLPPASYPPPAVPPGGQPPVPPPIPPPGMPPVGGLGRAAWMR

Consider `C[C@H]1CN(c2nc(NCc3nnc(-c4cccc(F)c4)[nH]3)n3ncc(Br)c3n2)CCN1C` [Example 154, 8-bromo-2-[(3S)-3,4-dimethylpiperazin-1-yl]-N-{[5-(3-fluorophenyl)-4H-1,2,4-triazol-3-yl]methyl}pyrazolo[1,5-a][1,3,5]triazin-4-amine], for which the IC50 on CDK2/CycE was found to be 4470 nM. In addition, in assay [1], the IC50 was 7.04 nM. In addition, in assay [2], the DC50 was determined as 5.27 nM and the “(IC50 CDK12 high ATP) to (Degradation DC50 CDK12) ratio” value was 1360.

`OCC1CCN1c1nc(NCc2nc3ccccc3[nH]2)n2ncc(Br)c2n1` (stereo not drawn) [Example 147, [1-[4-(1H-benzimidazol-2-ylmethylamino)-8-bromo-pyrazolo[1,5-a][1,3,5]triazin-2-yl]azetidin-2-yl]methanol]: the IC50 at CDK2/CycE stood at 3120 nM. In addition, the IC50 in assay [1] stood at 76.7 nM. In assay [2], the DC50 is 13.9 nM and the “(IC50 CDK12 high ATP) to (Degradation DC50 CDK12) ratio” value is reported as 359.

Take `CN1CCN(c2nc(NCc3nnc(-c4cccc(F)c4)[nH]3)n3ncc(Br)c3n2)CC1` [Example 136, 8-bromo-N-{[5-(3-fluorophenyl)-4H-1,2,4-triazol-3-yl]methyl}-2-(4-methylpiperazin-1-yl)pyrazolo[1,5-a][1,3,5]triazin-4-amine]: on CDK2/CycE, the IC50 was found to be 3450 nM. The IC50 in assay [1] is 33.8 nM. In assay [2], the DC50 came out at 3.61 nM and the “(IC50 CDK12 high ATP) to (Degradation DC50 CDK12) ratio” value is 1140.

`Fc1cccc(-c2nnc(CNc3nc(N4C[C@H]5C[C@@H]4CO5)nc4c(Br)cnn34)[nH]2)c1` [Example 153, 8-bromo-N-{[5-(3-fluorophenyl)-4H-1,2,4-triazol-3-yl]methyl}-2-[(1R,4R)-2-oxa-5-azabicyclo[2.2.1]heptan-5-yl]pyrazolo[1,5-a][1,3,5]triazin-4-amine]: the IC50 is 1700 nM at CDK2/CycE and 8.2 nM in assay [1]. In addition, in assay [2], the DC50 was determined as 2.58 nM. Besides, in assay [2], the “(IC50 CDK12 high ATP) to (Degradation DC50 CDK12) ratio” value is 1143.

`Cc1ccc2[nH]c(CNc3nc(N4CCN(C)CC4)nc4c(Br)cnn34)nc2c1` [Example 158, 8-bromo-N-[(5-methyl-1H-benzimidazol-2-yl)methyl]-2-(4-methylpiperazin-1-yl)pyrazolo[1,5-a][1,3,5]triazin-4-amine]: at CDK2/CycE, the IC50 came to 5300 nM. In addition, the IC50 in assay [1] was 0.883 nM. For the same molecule, in assay [2], the DC50 worked out at 0.536 nM and the “(IC50 CDK12 high ATP) to (Degradation DC50 CDK12) ratio” value is 8313.

Turning to `CC1(C)CN(c2nc(NCc3nc4ccccc4[nH]3)n3ncc(C4CC4)c3n2)CCO1` [Example 123, N-[(1H-benzimidazol-2-yl)methyl]-8-cyclopropyl-2-(2,2-dimethylmorpholin-4-yl)pyrazolo[1,5-a][1,3,5]triazin-4-amine], at CDK2/CycE, the IC50 was above 20000 nM. Moreover, in assay [1], the IC50 turned out to be 71.2 nM. For the same molecule, in assay [2], the DC50 is 4.37 nM and the “(IC50 CDK12 high ATP) to (Degradation DC50 CDK12) ratio” value came to 2883.

Take `CC(C)c1cnn2c(NCc3nc4ccccc4[nH]3)nc(N3CCCOCC3)nc12` [Example 8, N-[(1H-benzimidazol-2-yl)methyl]-2-(1,4-oxazepan-4-yl)-8-(propan-2-yl)pyrazolo[1,5-a][1,3,5]triazin-4-amine]: the results for the IC50 (at CDK2/CycE; in assay [1]) were 11100 nM and 93.7 nM, respectively. Besides, the DC50 in assay [2] stood at 20.7 nM. Also, in assay [2], the “(IC50 CDK12 high ATP) to (Degradation DC50 CDK12) ratio” value is on record as above 956.

For `Fc1cccc(-c2nnc(CNc3nc(N4CCNCC4)nc4c(Br)cnn34)[nH]2)c1` [Example 152, 8-bromo-N-{[5-(3-fluorophenyl)-4H-1,2,4-triazol-3-yl]methyl}-2-(piperazin-1-yl)pyrazolo[1,5-a][1,3,5]triazin-4-amine], the IC50 on CDK2/CycE is 5420 nM. Further, in assay [1], the IC50 was 4.25 nM. In addition, in assay [2], the DC50 was determined as 12.7 nM and the “(IC50 CDK12 high ATP) to (Degradation DC50 CDK12) ratio” value came to 236.

On to `Fc1cccc2[nH]c(CNc3nc(N4CCOCC4)nc4c(Br)cnn34)nc12` [Example 97, 8-bromo-N-[(4-fluoro-1H-benzimidazol-2-yl)methyl]-2-(morpholin-4-yl)pyrazolo[1,5-a][1,3,5]triazin-4-amine], for which the IC50 on CDK2/CycE came out at 3240 nM. Besides, the IC50 in assay [1] is 1.68 nM. In assay [2], the DC50 turned out to be 0.327 nM and the “(IC50 CDK12 high ATP) to (Degradation DC50 CDK12) ratio” value is reported as 2411.

Consider `[O-][S+]1CCN(c2nc(NCc3nc4ccccc4[nH]3)n3ncc(Br)c3n2)CC1` [Example 144, 4-(4-{[(1H-benzimidazol-2-yl)methyl]amino}-8-bromopyrazolo[1,5-a][1,3,5]triazin-2-yl)-1lambda^4-thiomorpholin-1-one], for which, on CDK2/CycE, the IC50 is 7810 nM. Moreover, the IC50 in assay [1] was 83.3 nM. Further, in assay [2], the DC50 is 6.32 nM and the “(IC50 CDK12 high ATP) to (Degradation DC50 CDK12) ratio” value was determined as 590.

As to `Brc1cnn2c(NCc3nc4ccccc4[nH]3)nc(N3CCN4CCC[C@@H]4C3)nc12` [Example 149, N-[(1H-benzimidazol-2-yl)methyl]-8-bromo-2-[(8aR)-hexahydropyrrolo[1,2-a]pyrazin-2 (1 H)-yl]pyrazolo[1,5-a][1,3,5]triazin-4-amine], on CDK2/CycE, the IC50 worked out at 6380 nM. Besides, the IC50 in assay [1] amounted to 148 nM. In addition, in assay [2], the DC50 was 12.6 nM and the “(IC50 CDK12 high ATP) to (Degradation DC50 CDK12) ratio” value was determined as 495.

Turning to `Cc1cccc2[nH]c(CNc3nc(N4CCOCC4)nc4c(Br)cnn34)nc12` [Example 150, 8-bromo-N-[(4-methyl-1H-benzimidazol-2-yl)methyl]-2-(morpholin-4-yl)pyrazolo[1,5-a][1,3,5]triazin-4-amine], the IC50 at CDK2/CycE turned out to be 4360 nM. Also, the IC50 in assay [1] is 13 nM. In assay [2], the DC50 was 1.31 nM and the “(IC50 CDK12 high ATP) to (Degradation DC50 CDK12) ratio” value is given as 2033.

Consider `Fc1ccc(-c2nnc(CNc3nc(N4CCOCC4)nc4c(Br)cnn34)[nH]2)cc1F` [Example 99, 8-bromo-N-{[5-(3,4-difluorophenyl)-4H-1,2,4-triazol-3-yl]methyl}-2-(morpholin-4-yl)pyrazolo[1,5-a][1,3,5]triazin-4-amine], for which the IC50 on CDK2/CycE turned out to be 1770 nM; in assay [1], 11.2 nM. In assay [2], the DC50 turned out to be 6.7 nM.

As for `c1cncc(-c2cnn3c(NCc4nc5ccccc5[nH]4)nc(N4CCOCC4)nc23)c1` [Example 108, N-[(1H-benzimidazol-2-yl)methyl]-2-(morpholin-4-yl)-8-(pyridin-3-yl)pyrazolo[1,5-a][1,3,5]triazin-4-amine], the IC50 at CDK2/CycE was above 20000 nM. Besides, the IC50 in assay [1] is 87.4 nM. In assay [2], the DC50 was 5.53 nM and the “(IC50 CDK12 high ATP) to (Degradation DC50 CDK12) ratio” value is given as above 3617.

For `CN1CCN(c2nc(NCc3nc4c(F)cccc4[nH]3)n3ncc(Br)c3n2)CC1` [Example 126, 8-bromo-N-[(4-fluoro-1H-benzimidazol-2-yl)methyl]-2-(4-methylpiperazin-1-yl)pyrazolo[1,5-a][1,3,5]triazin-4-amine], the IC50 at CDK2/CycE turned out to be 5990 nM. The IC50 in assay [1] came to 10.1 nM. For the same molecule, in assay [2], the DC50 was 0.906 nM and the “(IC50 CDK12 high ATP) to (Degradation DC50 CDK12) ratio” value was found to be 7539.

With `CN1CCN(c2nc(NCc3nc4cc(Cl)ccc4[nH]3)n3ncc(Br)c3n2)CC1` [Example 163, 8-bromo-N-[(5-chloro-1H-benzimidazol-2-yl)methyl]-2-(4-methylpiperazin-1-yl)pyrazolo[1,5-a][1,3,5]triazin-4-amine], on CDK2/CycE, the IC50 was found to be 10800 nM. Further, the IC50 in assay [1] came out at 1.03 nM. In addition, in assay [2], the DC50 stood at 0.334 nM and the “(IC50 CDK12 high ATP) to (Degradation DC50 CDK12) ratio” value is on record as above 17106.

On to `CN1CCN(c2nc(NCc3nc4c(F)cccc4[nH]3)n3ncc(C4CC4)c3n2)CC1` [Example 165, 8-cyclopropyl-N-[(4-fluoro-1H-benzimidazol-2-yl)methyl]-2-(4-methylpiperazin-1-yl)pyrazolo[1,5-a][1,3,5]triazin-4-amine], for which the IC50 is above 20000 nM on CDK2/CycE and 2.35 nM in assay [1]. In addition, the DC50 in assay [2] is 0.405 nM. Further, the “(IC50 CDK12 high ATP) to (Degradation DC50 CDK12) ratio” value in assay [2] worked out at 25224.

As for `CCC1COCCN1c1nc(NCc2nc3ccccc3[nH]2)n2ncc(Br)c2n1` (stereo not drawn) [Example 116, N-(1H-benzimidazol-2-ylmethyl)-8-bromo-2-(3-ethylmorpholin-4-yl)pyrazolo[1,5-a][1,3,5]triazin-4-amine], the IC50 at CDK2/CycE was 3010 nM; in assay [1] it was 123 nM. In addition, the DC50 in assay [2] came to 4.44 nM. Also, the “(IC50 CDK12 high ATP) to (Degradation DC50 CDK12) ratio” value in assay [2] is 1517.

As for `C[C@@H]1CN(c2nc(NCc3nc4ccccc4[nH]3)n3ncc(Br)c3n2)C[C@H](C)N1C` [Example 129, N-(1H-benzimidazol-2-ylmethyl)-8-bromo-2-[(3R,5S)-3,4,5-trimethylpiperazin-1-yl]pyrazolo[1,5-a][1,3,5]triazin-4-amine], the IC50 at CDK2/CycE was above 20000 nM; in assay [1], 174 nM. The DC50 in assay [2] was found to be 4.98 nM. Also, in assay [2], the “(IC50 CDK12 high ATP) to (Degradation DC50 CDK12) ratio” value is above 3658.
